Results from patent publication US20110118120A1, “SYNERGISTIC HERBICIDAL COMPOSITION CONTAINING AMINOPYRALID AND SULFONYLUREAS” (Dow AgroSciences LLC, priority 2009, published 2011).

Tested on: milk thistle (Sonchus oleraceus; SONOL)
Assay: Postemergence herbicidal activity of mixtures under field conditions (percent visual weed control)
Format: in vivo
Settings: postemergence foliar, spring wheat
Method: These trials were conducted under field conditions in Northern New South Wales, Australia. Trials sites were located in commercially grown fields of spring wheat (Triticum aestivum). The wheat crop was grown using normal cultural practices for fertilization, seeding, and maintenance to ensure good growth of the crop and the weeds. The trial was conducted using normal research methodology. Trial plots were marked out measuring 3 meters (m) by 10 m. All treatments were applied using a randomized complete block trial design with 4 replications per treatment. The trial sites had naturally occurring populations of weeds present. The weed spectrum included, but was not limited to, milk thistle (Sonchus oleraceus; SONOL); wire-weed (Polygonum aviculare; POLAV); turnip weed (Rapistrum rugosum; RASRU); Medick, Medicago spp. (MEDSS); Patersons curse (Echium plantagineum; EPHIL). The weeds were treated with postemergence foliar applications when they were between cotyledons and 8 true leaves.
Treatments consisted of tank mixes of soluble granules of aminopyralid potassium salt and commercially available formulations of metsulfuron-methyl (Ally™ herbicide, water dispersible granules) and MCPA iso-octyl (emulsifiable concentrate). The ‘carrier’ application volume was using 100 liters per hectare (L/ha) of water. […]

Row | SMILES | % Control SONOL Ob (percent control observed) (Aminopyralid 3.75 g ae/ha alone) [%] | % Control SONOL Ob (percent control observed) (Metsulfuron 3 g ai/ha alone) [%]
1 | Nc1cc(Cl)nc(C(=O)O)c1Cl [Aminopyralid, aminopyralid] | 18 | 
2 | COC(=O)c1ccccc1S(=O)(=O)NC(=O)Nc1nc(C)nc(OC)n1 [Metsulfuron, metsulfuron-methyl] |  | 29
